Read-outs that look alike come from different tables or passages of the source.
Columns and labels:
[1] = tested on: human oral squamous carcinoma HSC-2 cells; experiment: CCK-8 antiproliferative assay, HSC-2; type: cell-based; settings: for IC50: read-out: IC50 (μM) HSC-2
Procedure: (§1) The in vitro antiproliferative activities of target compounds were investigated against human oral squamous carcinoma HSC-2, SCC-9, and A253 cells and human renal tubular epithelial HK-2 cells by Cell Counting Kit-8 (CCK-8) assay. The HSC-2, SCC-9, and A253 cell lines were purchased from Cobioer Biosciences (Nanjing, China), and HK-2 cell line was from KeyGen Biotech (Nanjing, China). The cells were placed into 96-well plates. After 24 h, cells were treated with 0.1% DMSO or different doses of test compounds for 72 h at 37°C in a CO2 incubator. Subsequently, 100 μl of CCK-8 test solution was added and incubated for 3 h at 37°C. The absorbance value of each well was measured at 450 nm.

[2] = tested on: human oral squamous carcinoma SCC-9 cells; experiment: CCK-8 antiproliferative assay, SCC-9; type: cell-based; settings: for IC50: read-out: IC50 (μM) SCC-9
Procedure: as §1

[3] = tested on: human oral squamous carcinoma A253 cells; experiment: CCK-8 antiproliferative assay, A253; type: cell-based; settings: for IC50: read-out: IC50 (μM) A253
Procedure: as §1

[4] = tested on: human renal tubular epithelial HK-2 cells; experiment: CCK-8 assay on normal cells, HK-2; type: cell-based; settings: read-out: IC50 (μM) HK-2
Procedure: as §1

[5] = tested on: human breast MCF-7 cells; parameters: method as in Sun et al., 2017; settings: in vitro; ref Sun et al., 2017; read-out: IC50 against MCF-7 cells; cited from earlier work
[6] = Homo sapiens, HSC-2, CCK-8, 72 h, mean ± SD
[7] = Homo sapiens, SCC-9, CCK-8, 72 h, mean ± SD
[8] = Homo sapiens, A253, CCK-8, 72 h, mean ± SD

IC50 (μM) HSC-2 ([1]; CCK-8, 72 h, mean ± SD) | IC50 [1, 6] | IC50 (μM) SCC-9 ([2]; CCK-8, 72 h, mean ± SD) | IC50 [2, 7] | IC50 (μM) A253 ([3]; CCK-8, 72 h, mean ± SD) | IC50 [3, 8] | SMILES | further results
 |  |  |  |  |  | COc1cc([C@@H]2c3cc4c(cc3[C@H](O)[C@H]3COC(=O)[C@H]23)OCO4)cc(OC)c1OC [compound 1, Podophyllotoxin] | IC50 ([1]; Homo sapiens, HSC-2, 72 h): 0.011 ± 0.003 µM; IC50 ([2]; Homo sapiens, SCC-9, 72 h): 0.009 ± 0.001 µM; IC50 ([3]; Homo sapiens, A253, 72 h): 0.01 ± 0.001 µM; IC50 ([4]; Homo sapiens, HK-2, 72 h): 0.04 ± 0.006 µM
 |  |  |  |  |  | COc1cc(C2c3cc4c(cc3C(OC(=O)CN3CCN(c5ccc(Cl)c(Cl)c5)CC3)C3COC(=O)C23)OCO4)cc(OC)c1OC (stereo not drawn) [compound 5] | IC50 [5]: 2.78 ± 0.15 µM
 |  |  |  |  |  | O=c1[nH]cc(F)c(=O)[nH]1 [5-FU] | IC50 ([1]; CCK-8, 72 h, mean ± SD): 7.12 ± 0.87 µM; IC50 ([2]; CCK-8, 72 h, mean ± SD): 5.35 ± 0.784 µM; IC50 ([3]; CCK-8, 72 h, mean ± SD): 5.52 ± 0.199 µM; IC50 ([4]; normal cells, CCK-8, 72 h, mean ± SD): 8.77 ± 1.04 µM
no antiproliferative effect | > 100 µM | no antiproliferative effect | > 100 µM | no antiproliferative effect | > 100 µM | Cc1cc(=O)oc2cc(O)ccc12 [compound 7, 4-methylumbelliferone] | 
no antiproliferative effect | > 100 µM | no antiproliferative effect | > 100 µM | no antiproliferative effect | > 100 µM | O=c1ccc2ccc(O)cc2o1 [compound 8, 7-hydroxycoumarin] | 

From publication PMC7843452, “Novel Hybrids of Podophyllotoxin and Coumarin Inhibit the Growth and Migration of Human Oral Squamous Carcinoma Cells” (Frontiers in Chemistry, 2021)
